Measurements as given in patent EP0880540B1, “17-BETA-CYCLOPROPYL(AMINO/OXY) 4-AZA STEROIDS AS ACTIVE INHIBITORS OF TESTOSTERONE 5-ALPHA-REDUCTASE AND C17-20-LYASE” (Aventis Pharmaceuticals Inc., priority 1996, dated 1997).

Biological target: T1, nude mouse testicular C17,20 lyase (Mus musculus, UniProt P27786)
T1 construct: from tissue; host or cells: testes of male athymic nude mice (Harlan Laboratories), 10,000 x g supernatant of homogenate
T1 sequence (P27786 1-507): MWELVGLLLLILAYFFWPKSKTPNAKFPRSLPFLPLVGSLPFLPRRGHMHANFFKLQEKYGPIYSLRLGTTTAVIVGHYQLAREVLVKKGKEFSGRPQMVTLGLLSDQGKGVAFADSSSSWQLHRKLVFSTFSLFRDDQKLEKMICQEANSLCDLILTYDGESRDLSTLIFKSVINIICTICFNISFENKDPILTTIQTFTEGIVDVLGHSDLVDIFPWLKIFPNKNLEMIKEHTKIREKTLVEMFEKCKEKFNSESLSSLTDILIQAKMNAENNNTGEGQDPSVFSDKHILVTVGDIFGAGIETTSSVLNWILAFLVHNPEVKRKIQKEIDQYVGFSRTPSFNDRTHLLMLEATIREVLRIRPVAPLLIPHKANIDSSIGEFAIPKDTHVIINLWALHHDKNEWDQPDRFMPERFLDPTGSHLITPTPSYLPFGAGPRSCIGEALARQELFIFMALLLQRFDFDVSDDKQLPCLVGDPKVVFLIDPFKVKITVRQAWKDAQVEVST
Assay: Ex vivo inhibition of C17,20 lyase in nude mouse testes after oral dosing
Design: species or system male athymic nude mice
Settings: 4 hours after oral dosing
Method: Ex vivo inhibition of C17,20 lyase: MDL 103,432 was tested for ex vivo inhibition of rat and nude mouse testes lyase. Male Copenhagen rats and male athymic nude mice obtained from Harlan Laboratories, Indianapolis, IN, were divided into groups of 5 to 6 based on weight. Average weight was 100-140 g each for rats and 18-35 g each for the mice. Prior to oral dosing, animals were fasted overnight. Test compound was prepared by micronization in a lecithin vehicle using a glass Teflon® pestle-type homogenizer. The compound was brought to volume using lecithin so as to administer 0.5 mL per 100 g animal. Rats and nude mice were given vehicle only (controls) or vehicle plus test compounds peros. Rats were also given the compound in lecithin or lecithin alone subcutaneously. Each group consisted of 5-6 animals. At a specified time after dosing, the animals were anesthetized with CO2 gas, sacrificed by cervical dislocation, testes were excised, capsules were removed, and the tissue was weighed. […] Assays were terminated, extracted and analyzed as described above except that carrier steroids were 17α-hydroxyprogesterone, androst-4-ene-dione, and testosterone. […] Activity of test compound was expressed as percent inhibition relative to the control and was the mean of each group of treated animals.

CC12CCC3C(CC[C@H]4NC(=O)CCC34C)C1CC[C@@H]2OC1CC1 (stereo partly drawn) [MDL 103,432, 17β-Cyclopropyloxy-4-aza-5α-androstan-3-one]
inhibition at 30 mg/kg (30 mg/kg): 88%
inhibition at 100 mg/kg (100 mg/kg): 96%
